In patent US10179125B2, “Substituted pyridines as bromodomain inhibitors” (Zenith Epigenetics Ltd., priority 2014, dated 2019) one finds IC50 data, which are given here for nine compounds.

For one test, the system named is hIL-17. Description: Inhibition of hIL-17 mRNA transcription in OKT3-stimulated peripheral blood mononuclear cells. Type of test: cell-based. As to conditions: human PBMC, OKT3 antibody 6 h, read-out: IL-17 activity. The protocol:
Human peripheral blood mononuclear cells were plated (2.0×10^5 cells per well) in a 96-well plate in 45 μL OpTimizer T Cell expansion media (Life Technologies) containing 20 ng/ml IL-2 and penicillin/streptomycin. The cells were treated with increasing concentrations of the test compound or DMSO (0.1%), and incubated at 37° C., 5% CO2 for 1 h before addition of 10× stock OKT3 antibody at 10 ug/ml in media. Triplicate wells were used for each concentration, Cells were incubated at 37° C., 5% CO2 for 6 h before the cells were harvested. At time of harvest, cells were pelleted by centrifugation at 800 rpm for 5 min. Cells were harvested using the mRNA Catcher PLUS kit according to manufacturer's instructions. The eluted mRNA was then used in a one-step quantitative real-time PCR reaction, using components of the RNA UltraSense™ One-Step Kit (Life Technologies) together with Applied Biosystems TaqMan® primer-probes for hIL-17 and Cyclophilin. Real-time PCR plates were run on a ViiA™ 7 real time PCR machine (Applied Biosystems), data was analyzed, normalizing the Ct values for hIL-17 to an internal control, prior to determining the fold induction of each unknown sample, relative to the control.

Another test deals with Human AML MV-4-11 cells. Description: Inhibition of cell proliferation in MV4-11 cells (CellTiter Aqueous One). In kind it is cell-based. The settings on record: Homo sapiens, 72 h. In a few lines: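 MV4-11 cells (5×10^4/well) in IMDM + 10% FBS were treated with graded compound or 0.1% DMSO for 72 h at 37 °C, 5% CO2, in triplicate. CellTiter Aqueous One was added for 3–4 h and absorbance read at 490 nm. Background-corrected signal was expressed relative to DMSO and used to calculate IC50.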

In the next test the test system is cMYC. The test is described as follows: Inhibition of cMYC expression in MV4-11 cells (real-time PCR). Type of test: cell-based, Human. The settings on record: Homo sapiens, 3 h, cMYC mRNA, read-out: c-myc activity. In a few lines: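 MV4-11 cells (2.5×10^4/well) treated 3 h at 37° C with compound in IMDM/10% FBS, 0.1% DMSO vehicle, in triplicate. cMYC mRNA quantified by one-step TaqMan RT-qPCR, Ct normalised to cyclophilin; fold expression relative to DMSO control.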

For the next test, the system named is hIL-6. Description: Inhibition of hIL-6 mRNA transcription in LPS-stimulated U937 cells. In kind it is cell-based, Human. The settings on record: Homo sapiens, U-937, PMA-differentiated U937 cells, 1 h pretreatment, LPS 3 h, read-out: IL-6 activity. In a few lines: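 U937 cells differentiated 3 days with 60 ng/mL PMA, pretreated 1 h with compound (0.1% DMSO), then stimulated with 1 ug/mL E. coli LPS for 3 h at 37 °C. IL-6 mRNA measured by one-step TaqMan qRT-PCR, normalized to cyclophilin; fold expression relative to control, triplicate wells.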

Test [1] deals with T1, Brd4 bromodomain 1 (BRD4(1)) (Homo sapiens, UniProt O60885).
T1 construct: made in house; host or cells: E. coli BL21(DE3)
Description: Inhibition of tetra-acetylated histone H4 binding to BET bromodomain (HTRF/FRET). The settings on record: His-tagged bromodomain 200 nM, biotinylated tetra-acetylated histone H4 peptide, 2 h room temperature. In a few lines:
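His-tagged BRD4(1) (200 nM, E. coli-expressed) incubated with biotinylated tetra-acetylated histone H4 peptide (25-50 nM) plus Eu-cryptate streptavidin and XL665 anti-His, with compound (0.2% DMSO), 2 h at room temperature in HEPES pH 7.4 buffer. HTRF 665/620 nm ratio decrease gives IC50.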

As to `COc1ncc(-c2c(C)noc2C)cc1NCc1ccc(F)cc1` [Example 6, 5-(3,5-dimethylisoxazol-4-yl)-N-(4-fluorobenzyl)-2-methoxypyridin-3-amine], the IC50 is 300 to 3000 nM in the test on hIL-17; 3000 to 30000 nM in the test with Human AML MV-4-11 cells; 300 to 3000 nM in the test on cMYC; 300 to 3000 nM in the test on hIL-6; ≤ 300 nM in test [1].

Consider `COc1ncc(-c2c(C)noc2C)cc1NCc1ccc(Cl)cc1` [Example 14, N-(4-chlorobenzyl)-5-(3,5-dimethylisoxazol-4-yl)-2-methoxypyridin-3-amine], for which the IC50 in the test on hIL-17 was 300 to 3000 nM; in the test on Human AML MV-4-11 cells, 3000 to 30000 nM; in the test with hIL-6, 3000 to 30000 nM; in test [1], ≤ 300 nM.

With `COc1ncc(-c2c(C)noc2C)cc1Nc1c(C)noc1C` [Example 43, N-(5-(3,5-dimethylisoxazol-4-yl)-2-methoxypyridin-3-yl)-3,5-dimethylisoxazol-4-amine], the IC50 with hIL-17 was 300 to 3000 nM; in the test with Human AML MV-4-11 cells, 300 to 3000 nM; in the test on cMYC, ≤ 300 nM; in the test with hIL-6 it was ≤ 300 nM; in test [1] it was ≤ 300 nM.

On to `CNc1ncc(-c2c(C)noc2C)cc1NCc1ccccc1` [Example 45, N3-benzyl-5-(3,5-dimethylisoxazol-4-yl)-N2-methylpyridine-2,3-diamine], for which the IC50 is 300 to 3000 nM in the test on hIL-17; 300 to 3000 nM in the test on Human AML MV-4-11 cells; 300 to 3000 nM in the test with cMYC; ≤ 300 nM in the test on hIL-6; ≤ 300 nM in test [1].

Take `COc1ncc(-c2c(C)noc2C)cc1OCc1ccccc1` [Example 10, 4-(5-(benzyloxy)-6-methoxypyridin-3-yl)-3,5-dimethylisoxazole]: the IC50 with hIL-17 is 3000 to 30000 nM; in the test on Human AML MV-4-11 cells, 3000 to 30000 nM; with cMYC, 300 to 3000 nM; in the test with hIL-6, 300 to 3000 nM; in test [1], ≤ 300 nM.

Regarding `COc1ncc(-c2c(C)noc2C)cc1NC(C)c1ccccn1` (centres unmarked) [Example 24, 5-(3,5-dimethylisoxazol-4-yl)-2-methoxy-N-(1-(pyridin-2-yl)ethyl)pyridin-3-amine], the IC50 in the test on Human AML MV-4-11 cells is 300 to 3000 nM; in the test with cMYC it was 300 to 3000 nM; in the test with hIL-6 it was 300 to 3000 nM; in test [1], ≤ 300 nM.

As to `COc1ncc(-c2c(C)noc2C)cc1NCc1cc(C)sc1C` [Example 20, 5-(3,5-dimethylisoxazol-4-yl)-N-((2,5-dimethylthiophen-3-yl)methyl)-2-methoxypyridin-3-amine], the IC50 is 3000 to 30000 nM in the test on Human AML MV-4-11 cells, 3000 to 30000 nM in the test on cMYC, 300 to 3000 nM in the test with hIL-6 and ≤ 300 nM in test [1].

Turning to `COc1ncc(-c2c(C)noc2C)cc1Nc1cc(C(N)=O)ccc1C` [Example 62, 3-((5-(3,5-dimethylisoxazol-4-yl)-2-methoxypyridin-3-yl)amino)-4-methylbenzamide], the IC50 in the test on Human AML MV-4-11 cells was 3000 to 30000 nM; in the test on cMYC it was 300 to 3000 nM; with hIL-6 it was 300 to 3000 nM; in test [1], ≤ 300 nM.

For the compound `COc1ncc(-c2c(C)noc2C)cc1NCc1ccc(C#N)cc1` [Example 11, 4-(((5-(3,5-dimethylisoxazol-4-yl)-2-methoxypyridin-3-yl)amino)methyl)benzonitrile], the IC50 with hIL-17 was 300 to 3000 nM; in the test with Human AML MV-4-11 cells it was 3000 to 30000 nM; in the test on cMYC, 300 to 3000 nM; in the test with hIL-6 it was 300 to 3000 nM; in test [1], ≤ 300 nM.
